We go through five compounds from US6479532B1, “Antifungal compositions” (Fujisawa Pharmaceutical Co., Ltd., priority 1999, dated 2002).

By MIC is commonly meant the lowest concentration found to suppress growth.

Where a name gives a salt, the structure may show the parent alone. Marks after values point to notes of the source that are not given here.

What all share (type): cell-based
The test system of assay [1] is Trichophyton rubrum 7005. In words: Agar plate dilution assay (checker board), PY + BTF. Here is the method: (§1) With Trichophyton spp., each strain was cultured on a Sabouraud's glucose agar (glucose 2%) slant at 25° C. for 2˜3 weeks. Then, about 3˜5 ml of physiological saline supplemented with 0.1% (w/v) Tween 80 and sterilized was added to the above slant culture of the test strain and conidia were liberated by scratching the slant surface with a platinum loop. The collected conidial suspension was filtered through a fine-mesh metal sieve to remove hyphal masses and, then, centrifuged at 3000×g for 10 minutes to concentrate the conidia. The concentrate was resuspended in the same sterile saline solution as above, the conidia were counted with a hemocytometer, and the suspension was adjusted to a predetermined conidial population (10^5 spores/ml).
(§2) Each plate was inoculated with a microbial suspension of predetermined concentration (cells or spores/ml) by the stamping method. Trichophyton spp. were cultured at 25° C. for 2 weeks and Candida spp. were cultured at 30° C. for 2 days. Then, the growth of each test strain was investigated.
(§3) The FIC index was calculated from the MIC value of PY or LC as used alone or PY and LC as used in combination.
(§4) For Trichophyton spp., the same medium as used in Test Example 1 was used.
(§5) With Trichophyton spp., the procedure of Test Example 1 was repeated.
(§6) A 1 mg/ml solution of each drug was prepared by using ethyl alcohol for PY or dimethyl sulfoxide (DMSO) for BTF and diluted to a predetermined concentration using 20% ethyl alcohol as diluent for PY or 10% DMSO as diluent for BTF.
(§7) In the case of Trichophyton spp., 0.5 ml of a PY solution and 0.5 ml of a BTF solution, both of predetermined concentration, were blended with 9 ml of the medium to prepare a drug-containing agar plate and the procedure of test Example 1 was repeated.
(§8) Calculation of the FIC index was also performed in the same manner as in Test Example 1.

For assay [2], the system named is Trichophyton rubrum 7030. The description is as above. How it is done: as §1, §2, §3, §4, §5, §6, §7, §8
The subject of assay [3] is Candida albicans 16010. In words: Agar plate dilution assay (checker board), PY + TF. Particulars: 48 h, drug alone, test organism h, 30° C., 2 days. How it is done:
Mueller Hinton agar medium was used for Staphylococcus spp. and Sabouraud's glucose agar (glucose 2%) medium was used for the fungi. Candida albicans was cultured in Sabouraud's broth medium (glucose 2%) at 30° C. for 24 hours and the culture was diluted 10-fold (10^5 cells/ml) with the same medium and used. A 1 mg/ml solution of each drug was prepared using ethyl alcohol for PY or dimethyl sulfoxide (DMSO) for TF and diluted to a predetermined concentration by using 20% ethyl alcohol as diluent for PY or 10% DMSO as diluent for TF. For the determination of the growth-inhibitory effects of drugs on test organisms, drug-containing plates were prepared by blending 0.5 ml of a PY solution and 0.5 ml of a TF solution, both of predetermined concentration, with 9 ml of said medium. The plates were inoculated with the microbial suspensions (cells or spores/ml) by the stamping technique. Trichophyton spp. were cultured at 25° C. for 2 weeks, Candida spp. at 30° C. for 2 days, and Staphylococcus spp. at 37° C. for 20 hours. Then, the growth of each test organism was investigated (checker board method). The FIC index was calculated from the MIC value of PY or TF alone or the two drugs used in combination.

The test system of assay [4] is Trichophyton rubrum 7010. Briefly: Agar plate dilution assay (checker board), PY + TF. How it is done: (§9) Mueller Hinton agar medium was used for Staphylococcus spp. and Sabouraud's glucose agar (glucose 2%) medium was used for the fungi.
as §1
(§10) A 1 mg/ml solution of each drug was prepared using ethyl alcohol for PY or dimethyl sulfoxide (DMSO) for TF and diluted to a predetermined concentration by using 20% ethyl alcohol as diluent for PY or 10% DMSO as diluent for TF.
(§11) For the determination of the growth-inhibitory effects of drugs on test organisms, drug-containing plates were prepared by blending 0.5 ml of a PY solution and 0.5 ml of a TF solution, both of predetermined concentration, with 9 ml of said medium.
(§12) The plates were inoculated with the microbial suspensions (cells or spores/ml) by the stamping technique. Trichophyton spp. were cultured at 25° C. for 2 weeks, Candida spp. at 30° C. for 2 days, and Staphylococcus spp. at 37° C. for 20 hours. Then, the growth of each test organism was investigated (checker board method).
(§13) The FIC index was calculated from the MIC value of PY or TF alone or the two drugs used in combination.

For assay [5], the system named is Trichophyton rubrum 7030. Briefly: Agar plate dilution assay (checker board), PY + TF. Here is the method:
as §9, §1, §10, §11, §12, §13

The test system of assay [6] is Staphylococcus epidermidis 15001. Briefly: Agar plate dilution assay (checker board), PY + TF. Particulars: drug alone, test organism l, 37° C., 20 hours. How it is done:
(§14) Mueller Hinton agar medium was used for Staphylococcus spp. and Sabouraud's glucose agar (glucose 2%) medium was used for the fungi. Staphylococcus spp. were cultured in Mueller Hinton broth medium at 37° C. for 18˜20 hours and diluted 100-fold with the same medium (about 10^6 cells/ml) and this dilution was used as the inoculum. A 1 mg/ml solution of each drug was prepared using ethyl alcohol for PY or dimethyl sulfoxide (DMSO) for TF and diluted to a predetermined concentration by using 20% ethyl alcohol as diluent for PY or 10% DMSO as diluent for TF. For the determination of the growth-inhibitory effects of drugs on test organisms, drug-containing plates were prepared by blending 0.5 ml of a PY solution and 0.5 ml of a TF solution, both of predetermined concentration, with 9 ml of said medium. The plates were inoculated with the microbial suspensions (cells or spores/ml) by the stamping technique. Trichophyton spp. were cultured at 25° C. for 2 weeks, Candida spp. at 30° C. for 2 days, and Staphylococcus spp. at 37° C. for 20 hours. Then, the growth of each test organism was investigated (checker board method). The FIC index was calculated from the MIC value of PY or TF alone or the two drugs used in combination.

The test system of assay [7] is Staphylococcus aureus FP5. In words: Agar plate dilution assay (checker board), PY + TF. The note with it: drug alone, test organism k, 37° C., 20 hours. How it is done:
as §14

The subject of assay [8] is Candida albicans YU-1200. In words: Agar plate dilution assay (checker board), PY + LC. Particulars: YU1200, 48 h, drug alone, test strain a, 30° C., 2 days. Here is the method:
(§15) Sabouraud's glucose agar (glucose 2%) Candida albicans was cultured in Sabouraud's broth medium (glucose 2%) at30° C. for 24 hours and the resulting culture was diluted 10-fold with the same medium as above (10^5 cells/ml) and used. Using ethyl alcohol for PY and dimethyl sulfoxide (DMSO) for LC, a 1 mg/ml solution of each drug was respectively prepared. Then, the solution was diluted to a predetermined concentration using 20% ethyl alcohol as diluent for PY and 10% DMSO as diluent for LC. For the determination of inhibitory activity, 0.5 ml of a PY solution and 0.5 ml of an LC solution, each adjusted to a predetermined concentration were blended with 9 ml of Sabouraud's glucose agar medium to prepare drug-containing plates (checker board method). Each plate was inoculated with a microbial suspension of predetermined concentration (cells or spores/ml) by the stamping method. Trichophyton spp. were cultured at 25° C. for 2 weeks and Candida spp. were cultured at 30° C. for 2 days. Then, the growth of each test strain was investigated. The FIC index was calculated from the MIC value of PY or LC as used alone or PY and LC as used in combination.

Assay [9] deals with Candida albicans 12012. In words: Agar plate dilution assay (checker board), PY + LC. The note with it: 48 h, drug alone, test strain b, 30° C., 2 days. How it is done:
as §15

For assay [10], the system named is Trichophyton rubrum 7010. Briefly: Agar plate dilution assay (checker board), PY + LC. Particulars: Trichophyton rubrum, 7010, 336 h. How it is done: (§16) Sabouraud's glucose agar (glucose 2%)
as §1
(§17) Using ethyl alcohol for PY and dimethyl sulfoxide (DMSO) for LC, a 1 mg/ml solution of each drug was respectively prepared. Then, the solution was diluted to a predetermined concentration using 20% ethyl alcohol as diluent for PY and 10% DMSO as diluent for LC.
(§18) For the determination of inhibitory activity, 0.5 ml of a PY solution and 0.5 ml of an LC solution, each adjusted to a predetermined concentration were blended with 9 ml of Sabouraud's glucose agar medium to prepare drug-containing plates (checker board method).
as §2, §3

Assay [11] relates to Trichophyton rubrum 7030. Briefly: Agar plate dilution assay (checker board), PY + LC. Particulars: Trichophyton rubrum, 7030, 336 h. Here is the method:
as §16, §1, §17, §18, §2, §3

Assay [12] concerns Staphylococcus epidermidis 15001. Briefly: Agar plate dilution assay (checker board), PY + BTF. The note with it: drug alone, test strain g, 37° C., 20 hours. How it is done:
For the general bacterium (S. epidermidis), Mueller Hinton agar medium was used. The general bacterium was cultured in Mueller Hinton broth medium at 37° C. for 20 hours and the culture was diluted 100-fold with the same medium (10^6 cells/ml) and used. A 1 mg/ml solution of each drug was prepared by using ethyl alcohol for PY or dimethyl sulfoxide (DMSO) for BTF and diluted to a predetermined concentration using 20% ethyl alcohol as diluent for PY or 10% DMSO as diluent for BTF. In the case of the general bacterium, Mueller Hinton agar medium was used to prepare plates and the procedure of Test Example 1 was repeated. After 20 hours of culture at 37° C., the growth of the test organism was investigated. Calculation of the FIC index was also performed in the same manner as in Test Example 1.

The test system of assay [13] is Candida albicans 12012. In words: Fungicidal effect, viable cell count after 24 h in broth. Here is the method:
Medium used: Sabouraud's (glucose 2%) broth medium
Test strain: Candida albicans 12012
Inoculum size: about 10^4 cells/ml (1% of a 24-hour culture using Sabouraud's broth medium at 30° C.)
To one part by volume of a drug solution prepared at a concentration 10 times the predetermined concentration was added 9 parts by volume of the inoculated Sabouraud's broth medium, followed by mixing. The mixture was incubated at 30° C. for 24 hours and the MIC was determined.
Furthermore, 0.1 ml samples were taken from the test microbial suspensions of varying concentrations and inoculated onto Sabouraud's (glucose 2%) agar plates using Conradi's spreader.
After 2 days of culture at 30° C., the colonies formed were counted and the number of remaining viable cells per 0.1 ml was determined.

Where [14] appears, read: drug concentration 3.13 μg/ml, class symbol.
[15] abbreviates: drug concentration 6.25 μg/ml, class symbol.

Take `O=[N+]([O-])c1c(Cl)cccc1-c1c[nH]cc1Cl` [PY, Pyrrolnitrin]: the minimal inhibitory concentration (MIC) turned out to be 0.1 µg/mL in assay [1]; 0.1 µg/mL in assay [2]; 25 µg/mL in [3]; 0.2 µg/mL in assay [4] (Trichophyton rubrum, 7010, 336 h); 0.39 µg/mL in assay [5] (Trichophyton rubrum, 7030, 336 h); 12.5 µg/mL in assay [6]. Moreover, the MIC in assay [7] was found to be 25 µg/mL; in [8] it was 12.5 µg/mL; in assay [9], 25 µg/mL; in assay [10], 0.2 µg/mL; in assay [11], 0.2 µg/mL; in [12] it was 25 µg/mL.
For the compound `CN(Cc1ccc(C(C)(C)C)cc1)Cc1cccc2ccccc12` [BTF, Butenafine Hydrochloride], the MIC amounted to 0.025 µg/mL in assay [1], 0.025 µg/mL in assay [2] and 25 µg/mL in assay [12].
Take `CN(C/C=C/C#CC(C)(C)C)Cc1cccc2ccccc12` [TF, Terbinafine Hydrochloride]: the minimal inhibitory concentration (MIC) in assay [3] was determined as 50 µg/mL; in [4] (336 h, drug alone, test organism i, Trichophyton rubrum 7010, 25° C., 2 weeks, read-out: MIC) it was 0.0125 µg/mL; in [5] (336 h, drug alone, test organism j, Trichophyton rubrum 7030, 25° C., 2 weeks, read-out: MIC), 0.0125 µg/mL; in assay [6], 25 µg/mL; in [7] it was 50 µg/mL.
For Pyrrolnitrin, the Viable cell count result in assay [13] (setting [14]) was “∞ (∞: 10^3˜10^4)”; in assay [13] (setting [15]), “∞ (∞: 10^3˜10^4)”; in assay [13] (drug concentration 12.5 μg/ml) it was 1012 CFU/0.1 ml; in assay [13] (drug concentration 25 μg/ml), 1 CFU/0.1 ml.
For `N#C/C(=C1/SCC(c2ccccc2Cl)S1)n1ccnc1` (centres unmarked) [LC, Lanoconazole], the Viable cell count entry in assay [13] (setting [14]) is “∞ (∞: 10^3˜10^4)”; in [13] (setting [15]), “∞ (∞: 10^3˜10^4)”; in assay [13] (drug concentration 12.5 μg/ml), 876 CFU/0.1 ml; in assay [13] (drug concentration 25 μg/ml), 308 CFU/0.1 ml. Further, the minimal inhibitory concentration (MIC) in [8] amounted to 12.5 µg/mL; in [9], 25 µg/mL; in [10], 0.025 µg/mL; in [11], 0.0125 µg/mL.
